According to patent publication US20230406831A1, “COMPOUNDS AND METHODS OF INHIBITING BACTERIAL CHAPERONIN SYSTEMS” (THE TRUSTEES OF INDIANA UNIVERSITY, priority 2020, published 2023):
Like-named read-outs stand apart in the source and are kept apart here.

Experiments:
[1] = molecular target: T1, HSP60/10 (Homo sapiens, UniProt P10809); assay: HSP60/10-mediated dMDH refolding assay; format: biochemical
T1 construct: octa-Histidine (His8) tag, TEV-cleavable (N, cleaved yes); made in house; host or cells: HSP60 in Rosetta 2 (DE3) E. coli; HSP10 in Rosetta 2 (DE3) pLysS
T1 sequence (P10809 27-573): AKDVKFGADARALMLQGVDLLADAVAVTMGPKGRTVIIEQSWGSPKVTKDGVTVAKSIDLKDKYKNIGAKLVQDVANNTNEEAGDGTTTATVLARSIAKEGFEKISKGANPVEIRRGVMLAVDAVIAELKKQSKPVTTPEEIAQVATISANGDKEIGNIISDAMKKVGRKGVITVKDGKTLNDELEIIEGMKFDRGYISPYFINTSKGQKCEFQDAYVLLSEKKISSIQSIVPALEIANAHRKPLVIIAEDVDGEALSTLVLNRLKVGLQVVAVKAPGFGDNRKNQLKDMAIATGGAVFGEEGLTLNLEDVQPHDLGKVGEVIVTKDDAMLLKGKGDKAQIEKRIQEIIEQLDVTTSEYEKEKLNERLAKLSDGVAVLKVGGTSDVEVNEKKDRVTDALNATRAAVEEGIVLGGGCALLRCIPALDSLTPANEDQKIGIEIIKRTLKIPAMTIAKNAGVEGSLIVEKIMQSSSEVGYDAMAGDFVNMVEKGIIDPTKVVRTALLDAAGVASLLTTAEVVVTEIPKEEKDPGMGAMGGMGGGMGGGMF
Protocol: (§1) Evaluation of compounds ability to inhibit GroEL/ES and HSP60/10-mediated dMDH refolding assays.
(§2) Reagent preparation: For these assays, four primary reagent stocks were prepared: 1) GroEL/ES-dMDH or HSP60/10-dMDH binary complex stock; 2) ATP initiation stock; 3) EDTA quench stock; 4) MDH enzymatic assay stock. Denatured MDH (dMDH) was prepared by 2-fold dilution of MDH (5 mg/ml, soluble pig heart MDH from Roche, product #10127248001) with denaturant buffer (7 M guanidine-HCl, 200 mM Tris, pH 7.4, and 50 mM DTT). MDH was completely denatured by incubating at room temperature for 45 min. The binary complex solutions were prepared by slowly adding the dMDH stock to a stirring stock with GroEL (or HSP60) in folding buffer (50 mM Tris-HCl, pH 7.4, 50 mM KCl, 10 mM MglC2, and 1 mM DTT), followed by addition of GroES (or HSP10). The binary complex stocks were prepared immediately prior to dispensing into the assay plates and had final protein concentrations of 83.3 nM GroEL (Mr 800 kDa) or HSP60 (Mr 400 kDa), 100 nM GroES or HSP10 (Mr 70 kDa), and 20 nM dMDH in folding buffer. For the ATP initiation stock, ATP solid was diluted into folding buffer to a final concentration of 2.5 mM. Quench solution contained 600 mM EDTA (pH 8.0). The MDH enzymatic assay stock consisted of 20 mM sodium mesoxalate and 2.4 mM NADH in reaction buffer (50 mM Tris-HCl, pH 7.4, 50 mM KC1, and 1 mM DTT).
(§3) Assay Protocol: First, 30 μL aliquots of the GroEL/ES-dMDH or HSP60/10-dMDH binary complex stocks were dispensed into clear, 384-well polystyrene plates. Next, 0.5 μL of the compound stocks (10 mM to 4.6 μM, 3-fold dilutions series in DMSO) were added by pin-transfer (V&P Scientific). The chaperonin-mediated refolding cycles were initiated by addition of 20 IA of ATP stock (reagent concentrations during refolding cycle: 50 nM GroEL or HSP60, 60 nM GroES or HSP10, 12 nM dMDH, 1 mM ATP, and compounds of 100 μM to 46 nM, 3-fold dilution series). The refolding reactions were incubated at 37° C. The incubation time was determined from refolding time-course control experiments until they reached ˜90% completion of refolding cycle — generally ˜20-40 min for GroEL/ES, and ˜40-60 min for HSP60/10). Next, the assay was quenched by addition of 10 μL of the EDTA to final concentration of 100 mM. […] A340 nm measurements were recorded at 0.5 minutes (start point) and at successive time points until the amount of NADH consumed reached ˜90% (end point, generally between 20-35 minutes). The differences between the start and end point A340 values were used to calculate the % inhibition of the GroEL/ES or HSP60/10 machinery by the compounds. IC50 values for the test compounds were obtained by plotting the % inhibition results in GraphPad Prism 6 and analyzing by non-linear regression using the log (inhibitor) vs. response (variable slope) equation. Results presented represent the averages of IC50 values obtained from at least quadriplicate (duplicate of duplicate) replicates. For results, see Tables 1, 2, and 3.

[2] = tested on: S. aureus; assay: S. aureus bacterial proliferation assay; format: cell-based; settings: for EC50: Staphylococcus aureus, read-out: S. aureus Proliferation EC50
Protocol: Evaluation of compounds for inhibition of bacterial cell proliferation.
Growth Media: S. aureus bacteria were grown in Brain Heart Infusion (BHI) broth/agar (Becton, Dickinson and Company). All liquid cultures were grown in BHI media supplemented with 25 mg/L Ca^2+ and 12.5 mg/L Mg^2+ to mimic free physiological concentrations of these cations. A 10 mg/mL Ca^2+ stock solution was prepared by dissolving 3.68 g of CaCl2·2H^2O in 100 mL of deionized water, and a 10 mg/mL Mg^2+ stock solution was prepared by dissolving 8.36 g of […] in 100 mL deionized water. Both stock solutions were filter-sterilized using 0.2 μm pore size cellulose-acetate filters. 2.5 mL of the sterile 10 mg/mL Ca^2+ stock and 1.25 mL of the sterile 10 mg/mL Mg^2+ stock solutions were added per 1 L of autoclaved BHI medium to obtain 25 mg/L Ca^2+ and 12.5 mg/L Mg^2+ ions, respectively.
General Assay Protocol: Stock bacterial cultures were streaked onto BHI agar plates and grown overnight at 37° C. Fresh aliquots of broth were inoculated with single bacterial colonies and the cultures were grown overnight at 37° C. with shaking (240 rpm) in cation adjusted BHI media. The following morning, the overnight cultures were sub-cultured (1:5 dilution) into fresh aliquots of cation adjusted BHI media and grown at 37° C. for 1-2 hours with shaking. After 2 h, cultures were diluted into fresh media to achieve final OD600 readings of 0.017. Aliquots of these diluted cultures (30 μL) were added to clear, flat-bottom, 384-well polystyrene plates that were stamped with 0.5 μL of test compounds in 20 μL media. Compounds were evaluated in dose-response format where the inhibitor concentration range during the proliferation assay was 100 μM to 46 nM (3-fold dilution series). Plates were sealed with “Breathe Easy” oxygen permeable membranes (Diversified Biotech) and left to incubate at 37° C. without shaking (stagnant assay). OD600 nm readings were taken generally at 6-8 h, when bacteria had reached log-phase growth. A second set of baseline control plates were prepared analogously, but without any bacteria added, to correct for possible compound absorbance and/or precipitation. Plates were then read at 600 nm using a Molecular Devices SpectraMax Plus384 microplate reader. EC50 values for the test compounds were obtained by plotting the OD600 results in GraphPad Prism and analyzing by non-linear regression using the log(inhibitor) vs. response (variable slope) equation. For results, see Tables 1, 2, and 3.

[3] = molecular target: T2, GroEL/ES (Escherichia coli, UniProt P0A6F5); assay: GroEL/ES-mediated dMDH refolding assay; format: biochemical, E. coli
T2 construct: made in house; host or cells: GroEL in E. coli DH5a; GroES in E. coli BL21 (DE3)
T2 sequence (P0A6F5 2-548): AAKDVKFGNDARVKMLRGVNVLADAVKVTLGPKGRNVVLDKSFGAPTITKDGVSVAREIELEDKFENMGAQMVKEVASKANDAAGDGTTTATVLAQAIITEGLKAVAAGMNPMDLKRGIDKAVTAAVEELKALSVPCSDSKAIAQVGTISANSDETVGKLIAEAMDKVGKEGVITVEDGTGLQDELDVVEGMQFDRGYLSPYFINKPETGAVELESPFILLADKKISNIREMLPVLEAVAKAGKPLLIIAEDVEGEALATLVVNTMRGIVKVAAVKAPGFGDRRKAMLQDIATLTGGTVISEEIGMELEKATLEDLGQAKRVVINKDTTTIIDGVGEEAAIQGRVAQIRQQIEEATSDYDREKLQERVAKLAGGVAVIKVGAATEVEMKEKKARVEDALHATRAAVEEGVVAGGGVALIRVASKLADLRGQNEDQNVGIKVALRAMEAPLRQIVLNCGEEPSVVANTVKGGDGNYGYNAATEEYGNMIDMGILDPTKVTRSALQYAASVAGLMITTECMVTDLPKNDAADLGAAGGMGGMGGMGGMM
Protocol: as §1, §2, §3

[4] = Table 2, 37° C., 1 mM ATP, read-out: Biochemical Assay IC50 HSP60/10-dMDH Refolding
[5] = Table 2, cation adjusted BHI media, OD600 at 6-8 h
[6] = Table 3, 37° C., 1 mM ATP, read-out: Biochemical Assay IC50 HSP60/10-dMDH Refolding
[7] = Table 3, cation adjusted BHI media, OD600 at 6-8 h
[8] = Table 1, 37° C., 1 mM ATP, read-out: Biochemical Assay IC50 HSP60/10-dMDH Refolding
[9] = Table 1, cation adjusted BHI media, OD600 at 6-8 h

Row | Compound | IC50 [1, 4] [µM] | S. aureus Proliferation EC50 [2, 5] [µM] | IC50 [3] [µM] | IC50 [1, 6] [µM] | EC50 [2, 7] [µM] | other results
1 | Cc1cc(C(C#N)c2ccc(Cl)cc2)c(Cl)cc1NC(=O)c1ccc(Cl)cc1 (centres unmarked) [Compound 78, 4-chloro-N-(5-chloro-4-((4-chlorophenyl)(cyano)methyl)-2-methylphenyl)benzamide] | > 100 | > 100 | 63 | – | – | –
2 | COc1cccc(C(=O)Nc2cc(Cl)c(C(C#N)c3ccc(Cl)cc3)cc2C)c1 (centres unmarked) [Compound 62, N-(5-chloro-4-((4-chlorophenyl)(cyano)methyl)-2-methylphenyl)-3-methoxybenzamide] | > 100 | > 100 | 67 | – | – | –
3 | COc1ccc(Cl)cc1C(=O)Nc1ccc(NC(C)=O)cc1 [Compound 104, N-(4-acetamidophenyl)-5-chloro-2-methoxybenzamide] | – | – | > 100 | > 100 | > 100 | –
4 | COC(=O)c1ccc(NC(=O)c2cc(Cl)ccc2O)cc1 [Compound 107, methyl 4-(5-chloro-2-hydroxybenzamido)benzoate] | – | – | 83 | > 100 | 0.94 | –
5 | COc1ccc(C(=O)Nc2cc(Cl)c(C(C#N)c3ccc(Cl)cc3)cc2C)cc1 (centres unmarked) [Compound 63, N-(5-chloro-4-((4-chlorophenyl)(cyano)methyl)-2-methylphenyl)-4-methoxybenzamide] | > 100 | > 100 | 65 | – | – | –
6 | COc1c(Br)cc(Br)cc1C(=O)Nc1cc(Cl)c(C(C#N)c2ccc(Cl)cc2)cc1C (centres unmarked) [Compound 45, 3,5-dibromo-N-(5-chloro-4-((4-chlorophenyl)(cyano)methyl)-2-methylphenyl)-2-methoxybenzamide] | > 100 | > 100 | 30 | – | – | –
7 | O=C(Nc1cc(Cl)cc(Cl)c1O)c1c(O)c(Cl)cc(Cl)c1Cl [Oxyclosanide, reference compound] | – | – | 45 | – | – | IC50 [1, 8]: 28 µM; EC50 [2, 9]: 0.52 µM
8 | O=C(Nc1ncc([N+](=O)[O-])s1)c1ccccc1O [Tizoxanide, reference compound] | – | – | > 100 | – | – | IC50 [1, 8]: > 100 µM; EC50 [2, 9]: 9.7 µM
9 | Cc1cc(C(C#N)c2ccc(Cl)cc2)c(Cl)cc1NC(=O)c1ccccc1F (centres unmarked) [Compound 79, N-(5-chloro-4-((4-chlorophenyl)(cyano)methyl)-2-methylphenyl)-2-fluorobenzamide] | > 100 | > 100 | 89 | – | – | –
10 | COc1ccc(Cl)cc1C(=O)Nc1ccc(Sc2nc3ccccc3s2)cc1 [Compound 96, N-(4-(benzo[d]thiazol-2-ylthio)phenyl)-5-chloro-2-methoxybenzamide] | – | – | 59 | > 100 | > 100 | –
11 | COc1ccc(Cl)cc1C(=O)Nc1ccccc1 [Compound 116, 5-chloro-2-methoxy-N-phenylbenzamide] | – | – | > 100 | > 100 | > 100 | –
12 | O=C(Nc1ccc(Oc2ccc(Cl)cc2)c(Cl)c1)c1cc(I)cc(I)c1O [Rafoxanide, reference compound] | – | – | – | – | – | IC50 [1]: 2.7 µM; EC50 [2]: 0.3 µM; IC50 ([3]; Table 1, 37° C., 1 mM ATP, read-out: Biochemical Assay IC50 GroEL/ES-dMDH Refolding): 3.8 µM
13 | COc1ccc(Cl)cc1C(=O)Nc1ccc(Oc2ccc(Cl)cc2)cc1 [Compound 88, 5-chloro-N-(4-(4-chlorophenoxy)phenyl)-2-methoxybenzamide] | – | – | > 100 | > 100 | > 100 | –
14 | COc1ccc(Cl)cc1C(=O)Nc1ccc(Oc2ccc(Cl)cc2)c(Cl)c1 [Compound 86, 5-chloro-N-(3-chloro-4-(4-chlorophenoxy)phenyl)-2-methoxybenzamide] | – | – | > 100 | > 100 | > 100 | –
15 | COc1ccc(Cl)cc1C(=O)Nc1cc(Cl)c(C(C#N)c2ccc(Cl)cc2)cc1C (centres unmarked) [Compound 57, 5-chloro-N-(5-chloro-4-((4-chlorophenyl)(cyano)methyl)-2-methylphenyl)-2-methoxybenzamide] | > 100 | > 100 | 59 | > 100 | > 100 | –
16 | N#CC(c1ccccc1)c1ccc(NC(=O)c2cc(Cl)ccc2O)cc1 (centres unmarked) [Compound 85, 5-chloro-N-(4-(cyano(phenyl)methyl)phenyl)-2-hydroxybenzamide] | – | – | 56 | 75 | 1.1 | –
17 | Cc1cc(C(C#N)c2ccc(Cl)cc2)c(Cl)cc1NC(=O)c1ccccc1N (centres unmarked) [Compound 70, 2-amino-N-(5-chloro-4-((4-chlorophenyl)(cyano)methyl)-2-methylphenyl)benzamide] | > 100 | > 100 | 44 | – | – | –
18 | Cc1cc(C(C#N)c2ccc(Cl)cc2)c(Cl)cc1NC(=O)c1cccc(Br)c1 (centres unmarked) [Compound 74, 3-bromo-N-(5-chloro-4-((4-chlorophenyl)(cyano)methyl)-2-methylphenyl)benzamide] | > 100 | > 100 | 50 | – | – | –
19 | COc1ccc(Cl)cc1C(=O)Nc1ccc(C(=O)O)cc1 [Compound 108, 4-(5-chloro-2-methoxybenzamido)benzoic acid] | – | – | > 100 | > 100 | > 100 | –
20 | Cc1cc(C(C#N)c2ccc(Cl)cc2)c(Cl)cc1NC(=O)c1ccc(Cl)cc1O (centres unmarked) [Compound 56, 4-chloro-N-(5-chloro-4-((4-chlorophenyl)(cyano)methyl)-2-methylphenyl)-2-hydroxybenzamide] | 17 | – | 57 | – | – | EC50 [2, 5]: 0.013 µM
